Measured values taken from the NIST ThermoML archive (doi:10.1021/acs.jced.5b00488).
± gives the expanded uncertainty stated by the source.

Settings: Crystal; visual observation

- Triple point temperature: 468.15 ± 4 K
SMILES: CC(COCc1ccc(O)c2ncccc12)(COCc1ccc(O)c2ncccc12)COCc1ccc(O)c2ncccc12
